Data: ChEMBL document CHEMBL1201862, “PubChem BioAssay data set” (2004)
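How tested: cells in 96-well plates exposed to compound for 48 hours at five concentrations. The concentration for 50% growth inhibition is given as GI50.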 The source made the active and inactive calls. Cut-off read from the data, not from the text of the source: active = GI50 up to about 1.1 µM and inactive = higher.

Columns and labels:
Experiment in all cases: inhibition of tumour cell growth, NCI panel, 48 h
NCI-H23 = tested on: NCI-H23
OVCAR-3 = tested on: OVCAR-3
SF-295 = tested on: SF-295
ACHN = tested on: ACHN
SN12C = tested on: SN12C
M19-MEL = tested on: M19-MEL
UO-31 = tested on: UO-31
RXF 631 = tested on: RXF 631
SNB-19 = tested on: SNB-19
TK-10 = tested on: TK-10
SF-268 = tested on: SF-268
SK-MEL-28 = tested on: SK-MEL-28
MOLT-4 = tested on: MOLT-4
SF-539 = tested on: SF-539
HOP-62 = tested on: HOP-62
OVCAR-4 = tested on: OVCAR-4
Malme-3M = tested on: Malme-3M
RPMI-8226 = tested on: RPMI-8226
OVCAR-5 = tested on: OVCAR-5
HCC 2998 = tested on: HCC 2998
LXFL 529 = tested on: LXFL 529
CAKI-1 = tested on: CAKI-1
KM12 = tested on: KM12
DMS-273 = tested on: DMS-273
HOP-18 = tested on: HOP-18
KM-20L2 = tested on: KM-20L2
UACC-257 = tested on: UACC-257
A498 = tested on: A498
SK-MEL-2 = tested on: SK-MEL-2
IGROV-1 = tested on: IGROV-1
EKVX = tested on: EKVX
DMS-114 = tested on: DMS-114
SK-MEL-5 = tested on: SK-MEL-5
HCT-15 = tested on: HCT-15
NCI-H460 = tested on: NCI-H460
HT-29 = tested on: HT-29
K562 = tested on: K562
UACC-62 = tested on: UACC-62
OVCAR-8 = tested on: OVCAR-8
SW-620 = tested on: SW-620
U-251 = tested on: U-251
RXF 393 = tested on: RXF 393
DLD-1 = tested on: DLD-1
M14 = tested on: M14
SK-OV-3 = tested on: SK-OV-3
786-0 = tested on: 786-0
A549 = tested on: A549
LOX IMVI = tested on: LOX IMVI
SNB-78 = tested on: SNB-78
SNB-75 = tested on: SNB-75
COLO 205 = tested on: COLO 205
CCRF-CEM = tested on: CCRF-CEM
HL-60 = tested on: HL-60
HOP-92 = tested on: HOP-92
NCI-H522 = tested on: NCI-H522
HCT-116 = tested on: HCT-116
SR = tested on: SR
XF498 = tested on: XF498

## CC1CCCP(=O)(c2ccccc2)CC1 (configuration not stated)
NCI-H23
  GI50: > 100 µM (inactive)
OVCAR-3
  GI50: > 100 µM (inactive)
SF-295
  GI50: > 100 µM (inactive)
ACHN
  GI50: > 100 µM (inactive)
SN12C
  GI50: > 100 µM (inactive)
M19-MEL
  GI50: > 100 µM (inactive)
UO-31
  GI50: > 100 µM (inactive)
RXF 631
  GI50: > 100 µM (inactive)
SNB-19
  GI50: > 100 µM (inactive)
TK-10
  GI50: > 100 µM (inactive)
SF-268
  GI50: > 100 µM (inactive)
SK-MEL-28
  GI50: > 100 µM (inactive)
MOLT-4
  GI50: > 100 µM (inactive)
SF-539
  GI50: > 100 µM (inactive)
HOP-62
  GI50: > 100 µM (inactive)
OVCAR-4
  GI50: > 100 µM (inactive)
Malme-3M
  GI50: > 100 µM (inactive)
RPMI-8226
  GI50: > 100 µM (inactive)
OVCAR-5
  GI50: > 100 µM (inactive)
HCC 2998
  GI50: > 100 µM (inactive)
LXFL 529
  GI50: > 100 µM (inactive)
CAKI-1
  GI50: > 100 µM (inactive)
KM12
  GI50: > 100 µM (inactive)
DMS-273
  GI50: > 100 µM (inactive)
HOP-18
  GI50: 0.202 µM (active)
KM-20L2
  GI50: > 100 µM (inactive)
UACC-257
  GI50: > 100 µM (inactive)
A498
  GI50: > 100 µM (inactive)
SK-MEL-2
  GI50: > 100 µM (inactive)
IGROV-1
  GI50: > 100 µM (inactive)
EKVX
  GI50: > 100 µM (inactive)
DMS-114
  GI50: > 100 µM (inactive)
SK-MEL-5
  GI50: > 100 µM (inactive)
HCT-15
  GI50: > 100 µM
NCI-H460
  GI50: > 100 µM (inactive)
HT-29
  GI50: > 100 µM (inactive)
K562
  GI50: > 100 µM (inactive)
UACC-62
  GI50: > 100 µM (inactive)
OVCAR-8
  GI50: > 100 µM (inactive)
SW-620
  GI50: > 100 µM (inactive)
U-251
  GI50: > 100 µM (inactive)
RXF 393
  GI50: > 100 µM (inactive)
DLD-1
  GI50: > 100 µM (inactive)
M14
  GI50: > 100 µM (inactive)
SK-OV-3
  GI50: > 100 µM (inactive)
786-0
  GI50: > 100 µM (inactive)
A549
  GI50: > 100 µM (inactive)
LOX IMVI
  GI50: > 100 µM (inactive)
SNB-78
  GI50: > 100 µM (inactive)
SNB-75
  GI50: > 100 µM (inactive)
COLO 205
  GI50: > 100 µM (inactive)
CCRF-CEM
  GI50: > 100 µM (inactive)

## Cc1cc(Cl)ccc1NC(=O)CCCC(=O)C(C(=O)c1ccccc1)c1ccccc1 (configuration not stated)
NCI-H23
  GI50: > 100 µM (inactive)
OVCAR-3
  GI50: > 100 µM (inactive)
SF-295
  GI50: > 100 µM (inactive)
ACHN
  GI50: > 100 µM (inactive)
SN12C
  GI50: > 100 µM (inactive)
M19-MEL
  GI50: > 100 µM (inactive)
RXF 631
  GI50: > 100 µM (inactive)
SF-268
  GI50: > 100 µM (inactive)
MOLT-4
  GI50: > 100 µM (inactive)
HOP-62
  GI50: 93.5 µM (inactive)
OVCAR-4
  GI50: > 100 µM (inactive)
Malme-3M
  GI50: > 100 µM (inactive)
HL-60
  GI50: > 100 µM (inactive)
RPMI-8226
  GI50: > 100 µM (inactive)
OVCAR-5
  GI50: > 100 µM (inactive)
HCC 2998
  GI50: > 100 µM (inactive)
LXFL 529
  GI50: > 100 µM (inactive)
CAKI-1
  GI50: > 100 µM (inactive)
KM12
  GI50: > 100 µM (inactive)
HOP-92
  GI50: > 100 µM (inactive)
DMS-273
  GI50: > 100 µM (inactive)
KM-20L2
  GI50: > 100 µM (inactive)
UACC-257
  GI50: > 100 µM (inactive)
NCI-H522
  GI50: > 100 µM (inactive)
A498
  GI50: > 100 µM (inactive)
SK-MEL-2
  GI50: > 100 µM (inactive)
IGROV-1
  GI50: > 100 µM (inactive)
DMS-114
  GI50: > 100 µM (inactive)
HCT-15
  GI50: > 100 µM
NCI-H460
  GI50: > 100 µM (inactive)
HT-29
  GI50: > 100 µM (inactive)
K562
  GI50: > 100 µM (inactive)
UACC-62
  GI50: > 100 µM (inactive)
U-251
  GI50: > 100 µM (inactive)
DLD-1
  GI50: > 100 µM (inactive)
M14
  GI50: > 100 µM (inactive)
SK-OV-3
  GI50: > 100 µM (inactive)
786-0
  GI50: > 100 µM (inactive)
LOX IMVI
  GI50: > 100 µM (inactive)
SNB-78
  GI50: > 100 µM (inactive)
COLO 205
  GI50: > 100 µM (inactive)
CCRF-CEM
  GI50: > 100 µM (inactive)

## CC1(C)C=C(N2CCN(C3=CC(C)(C)NC(C)(C)C3)CC2)CC(C)(C)N1
NCI-H23
  GI50: > 100 µM (inactive)
HCT-116
  GI50: > 100 µM (inactive)
OVCAR-3
  GI50: > 100 µM (inactive)
SF-295
  GI50: > 100 µM (inactive)
ACHN
  GI50: > 100 µM (inactive)
SN12C
  GI50: > 100 µM (inactive)
SR
  GI50: > 100 µM (inactive)
M19-MEL
  GI50: > 100 µM (inactive)
UO-31
  GI50: > 100 µM (inactive)
SNB-19
  GI50: > 100 µM (inactive)
TK-10
  GI50: > 100 µM (inactive)
SF-268
  GI50: > 100 µM (inactive)
SK-MEL-28
  GI50: > 100 µM (inactive)
MOLT-4
  GI50: > 100 µM (inactive)
SF-539
  GI50: > 100 µM (inactive)
HOP-62
  GI50: > 100 µM (inactive)
OVCAR-4
  GI50: > 100 µM (inactive)
HL-60
  GI50: > 100 µM (inactive)
RPMI-8226
  GI50: > 100 µM (inactive)
OVCAR-5
  GI50: > 100 µM (inactive)
HCC 2998
  GI50: > 100 µM (inactive)
LXFL 529
  GI50: > 100 µM (inactive)
CAKI-1
  GI50: > 100 µM (inactive)
KM12
  GI50: > 100 µM (inactive)
HOP-92
  GI50: > 100 µM (inactive)
DMS-273
  GI50: > 100 µM (inactive)
HOP-18
  GI50: > 100 µM (inactive)
KM-20L2
  GI50: > 100 µM (inactive)
UACC-257
  GI50: > 100 µM (inactive)
NCI-H522
  GI50: > 100 µM (inactive)
A498
  GI50: > 100 µM (inactive)
IGROV-1
  GI50: > 100 µM (inactive)
EKVX
  GI50: > 100 µM (inactive)
DMS-114
  GI50: > 100 µM (inactive)
SK-MEL-5
  GI50: > 100 µM (inactive)
HCT-15
  GI50: > 100 µM
NCI-H460
  GI50: > 100 µM (inactive)
HT-29
  GI50: > 100 µM (inactive)
K562
  GI50: > 100 µM (inactive)
UACC-62
  GI50: > 100 µM (inactive)
XF498
  GI50: > 100 µM (inactive)
OVCAR-8
  GI50: > 100 µM (inactive)
SW-620
  GI50: > 100 µM (inactive)
U-251
  GI50: > 100 µM (inactive)
DLD-1
  GI50: > 100 µM (inactive)
M14
  GI50: > 100 µM (inactive)
SK-OV-3
  GI50: > 100 µM (inactive)
786-0
  GI50: > 100 µM (inactive)
A549
  GI50: > 100 µM (inactive)
LOX IMVI
  GI50: > 100 µM (inactive)
SNB-78
  GI50: > 100 µM (inactive)
SNB-75
  GI50: > 100 µM (inactive)
CCRF-CEM
  GI50: > 100 µM (inactive)
